Experimental data from ChEMBL document CHEMBL1949621, “Fluorocyclines. 1. 7-fluoro-9-pyrrolidinoacetamido-6-demethyl-6-deoxytetracycline: a potent, broad spectrum antibacterial agent” (J Med Chem, 2012).
≈ marks a conversion by molar mass, not a printed value.

Tests used:
Format in all cases: functional
Escherichia coli [1] = test: Antibacterial activity against tetracycline-resistant Escherichia coli 155
Enterobacter cloacae = test: Antibacterial activity against Enterobacter cloacae ATCC 108 13047
Klebsiella pneumoniae [2] = test: Antibacterial activity against tetracycline-resistant Klebsiella pneumoniae 153
Enterococcus faecalis [3] = test: Antibacterial activity against tetracycline-resistant Enterococcus faecalis 159
Pseudomonas aeruginosa = test: Antibacterial activity against Pseudomonas aeruginosa ATCC 111 27853
Staphylococcus aureus [4] = test: Antibacterial activity against tetracycline- and methicillin-resistant Staphylococcus aureus 161
Staphylococcus aureus [5] = test: Antibacterial activity against Staphylococcus aureus ATCC 101 29213
Acinetobacter baumannii = test: Antibacterial activity against Acinetobacter baumannii ATCC 19606 110
Streptococcus pneumoniae [6] = test: microbe, parasite or virus in culture; settings: ATCC 106 49619
Description: Antibacterial activity against Streptococcus pneumoniae ATCC 106 49619

Enterococcus faecalis [7] = test: Antibacterial activity against Enterococcus faecalis ATCC 103 29212
Streptococcus pneumoniae [8] = test: Antibacterial activity against tetracycline-resistant Streptococcus pneumoniae 160
Klebsiella pneumoniae [9] = test: Antibacterial activity against Klebsiella pneumoniae ATCC 109 13883
Escherichia coli [10] = test: Antibacterial activity against Escherichia coli ATCC 107 25922
Staphylococcus aureus [11] = test: microbe, parasite or virus in culture; settings: 158

SMILES	MIC (Escherichia coli [1])	MIC (Enterobacter cloacae)	MIC (Klebsiella pneumoniae [2])	MIC (Enterococcus faecalis [3])	MIC (Pseudomonas aeruginosa)	MIC (Staphylococcus aureus [4])	MIC (Staphylococcus aureus [5])	MIC (Acinetobacter baumannii)	MIC (Streptococcus pneumoniae [6])	MIC (Enterococcus faecalis [7])	MIC (Streptococcus pneumoniae [8])	MIC (Klebsiella pneumoniae [9])	MIC (Escherichia coli [10])	MIC (Staphylococcus aureus [11])
CN(C)[C@@H]1C(O)=C(C(N)=O)C(=O)[C@@]2(O)C(O)=C3C(=O)c4c(O)c(NC(=O)CN5CCCCC5)cc(F)c4C[C@H]3C[C@@H]12	4 µg/mL (≈ 6.99 µM)	4 µg/mL (≈ 6.99 µM)	4 µg/mL (≈ 6.99 µM)	0.5 µg/mL (≈ 0.873 µM)	32 µg/mL (≈ 55.9 µM)	1 µg/mL (≈ 1.75 µM)	0.5 µg/mL (≈ 0.873 µM)	0.125 µg/mL (≈ 0.218 µM)	0.0156 µg/mL (≈ 0.0272 µM)	0.25 µg/mL (≈ 0.437 µM)	0.0156 µg/mL (≈ 0.0272 µM)	2 µg/mL (≈ 3.49 µM)	1 µg/mL (≈ 1.75 µM)	0.5 µg/mL (≈ 0.873 µM)
CN(C)[C@@H]1C(O)=C(C(N)=O)C(=O)[C@@]2(O)C(O)=C3C(=O)c4c(O)c(NC(=O)CNc5cccnc5)cc(F)c4C[C@H]3C[C@@H]12	> 32 µg/mL	> 32 µg/mL	> 32 µg/mL	> 32 µg/mL	> 32 µg/mL	> 32 µg/mL	4 µg/mL (≈ 6.88 µM)	> 8 µg/mL	0.25 µg/mL (≈ 0.43 µM)	8 µg/mL (≈ 13.8 µM)	2 µg/mL (≈ 3.44 µM)	32 µg/mL (≈ 55 µM)	16 µg/mL (≈ 27.5 µM)	> 32 µg/mL
CC(C)NCC(=O)Nc1cc(F)c2c(c1O)C(=O)C1=C(O)[C@]3(O)C(=O)C(C(N)=O)=C(O)[C@@H](N(C)C)[C@@H]3C[C@@H]1C2	8 µg/mL (≈ 14.6 µM)	1 µg/mL (≈ 1.83 µM)	4 µg/mL (≈ 7.32 µM)	0.0625 µg/mL (≈ 0.114 µM)	16 µg/mL (≈ 29.3 µM)	0.25 µg/mL (≈ 0.457 µM)	0.125 µg/mL (≈ 0.229 µM)	1 µg/mL (≈ 1.83 µM)	0.0156 µg/mL (≈ 0.0285 µM)	0.0625 µg/mL (≈ 0.114 µM)	0.0156 µg/mL (≈ 0.0285 µM)	1 µg/mL (≈ 1.83 µM)	0.5 µg/mL (≈ 0.915 µM)	0.5 µg/mL (≈ 0.915 µM)
COCCNCC(=O)Nc1cc(F)c2c(c1O)C(=O)C1=C(O)[C@]3(O)C(=O)C(C(N)=O)=C(O)[C@@H](N(C)C)[C@@H]3C[C@@H]1C2	16 µg/mL (≈ 28.4 µM)	4 µg/mL (≈ 7.11 µM)	8 µg/mL (≈ 14.2 µM)	1 µg/mL (≈ 1.78 µM)	16 µg/mL (≈ 28.4 µM)	0.5 µg/mL (≈ 0.889 µM)	0.25 µg/mL (≈ 0.444 µM)	2 µg/mL (≈ 3.56 µM)	0.0156 µg/mL (≈ 0.0277 µM)	0.125 µg/mL (≈ 0.222 µM)	0.0625 µg/mL (≈ 0.111 µM)	2 µg/mL (≈ 3.56 µM)	1 µg/mL (≈ 1.78 µM)	4 µg/mL (≈ 7.11 µM)
CN(C)[C@@H]1C(O)=C(C(N)=O)C(=O)[C@@]2(O)C(O)=C3C(=O)c4c(O)c(NC(=O)CNCC(F)(F)F)cc(F)c4C[C@H]3C[C@@H]12	> 32 µg/mL	> 32 µg/mL	> 32 µg/mL	4 µg/mL (≈ 6.82 µM)	> 32 µg/mL	2 µg/mL (≈ 3.41 µM)	1 µg/mL (≈ 1.71 µM)	> 2 µg/mL	0.5 µg/mL (≈ 0.853 µM)	2 µg/mL (≈ 3.41 µM)	1 µg/mL (≈ 1.71 µM)	32 µg/mL (≈ 54.6 µM)	> 16 µg/mL	4 µg/mL (≈ 6.82 µM)
CN(C)[C@@H]1C(O)=C(C(N)=O)C(=O)[C@@]2(O)C(O)=C3C(=O)c4c(O)c(NC(=O)CN5CCC5)cc(F)c4C[C@H]3C[C@@H]12	8 µg/mL (≈ 14.7 µM)	1 µg/mL (≈ 1.84 µM)	4 µg/mL (≈ 7.35 µM)	0.125 µg/mL (≈ 0.23 µM)	8 µg/mL (≈ 14.7 µM)	0.25 µg/mL (≈ 0.459 µM)	0.125 µg/mL (≈ 0.23 µM)	2 µg/mL (≈ 3.67 µM)	0.0156 µg/mL (≈ 0.0286 µM)	0.0625 µg/mL (≈ 0.115 µM)	0.0156 µg/mL (≈ 0.0286 µM)	1 µg/mL (≈ 1.84 µM)	0.25 µg/mL (≈ 0.459 µM)	0.5 µg/mL (≈ 0.918 µM)
COC[C@@H]1CCCN1CC(=O)Nc1cc(F)c2c(c1O)C(=O)C1=C(O)[C@]3(O)C(=O)C(C(N)=O)=C(O)[C@@H](N(C)C)[C@@H]3C[C@@H]1C2	16 µg/mL (≈ 26.6 µM)	16 µg/mL (≈ 26.6 µM)	16 µg/mL (≈ 26.6 µM)	2 µg/mL (≈ 3.32 µM)	> 32 µg/mL	2 µg/mL (≈ 3.32 µM)	1 µg/mL (≈ 1.66 µM)	0.5 µg/mL (≈ 0.83 µM)	0.125 µg/mL (≈ 0.207 µM)	1 µg/mL (≈ 1.66 µM)	0.125 µg/mL (≈ 0.207 µM)	8 µg/mL (≈ 13.3 µM)	4 µg/mL (≈ 6.64 µM)	1 µg/mL (≈ 1.66 µM)
CN(C)[C@@H]1C(O)=C(C(N)=O)C(=O)[C@@]2(O)C(O)=C3C(=O)c4c(O)c(NC(=O)CN5CC[C@@H](F)C5)cc(F)c4C[C@H]3C[C@@H]12	16 µg/mL (≈ 27.8 µM)	8 µg/mL (≈ 13.9 µM)	8 µg/mL (≈ 13.9 µM)	0.25 µg/mL (≈ 0.434 µM)	> 32 µg/mL	0.5 µg/mL (≈ 0.867 µM)	0.25 µg/mL (≈ 0.434 µM)	0.25 µg/mL (≈ 0.434 µM)	0.0156 µg/mL (≈ 0.0271 µM)	0.125 µg/mL (≈ 0.217 µM)	0.0156 µg/mL (≈ 0.0271 µM)	4 µg/mL (≈ 6.94 µM)	1 µg/mL (≈ 1.73 µM)	0.5 µg/mL (≈ 0.867 µM)
CN(C)[C@@H]1C(O)=C(C(N)=O)C(=O)[C@@]2(O)C(O)=C3C(=O)c4c(O)c(NC(=O)CN5CCOCC5)cc(F)c4C[C@H]3C[C@@H]12	> 32 µg/mL	> 32 µg/mL	> 32 µg/mL	8 µg/mL (≈ 13.9 µM)	> 32 µg/mL	8 µg/mL (≈ 13.9 µM)	4 µg/mL (≈ 6.96 µM)	8 µg/mL (≈ 13.9 µM)	0.5 µg/mL (≈ 0.87 µM)	8 µg/mL (≈ 13.9 µM)	1 µg/mL (≈ 1.74 µM)	> 32 µg/mL	> 32 µg/mL	8 µg/mL (≈ 13.9 µM)
